According to paper PMC8219695 (Nature Communications, 2021):
Several values for one entry are separate records, joined by “and”; a condition that tells them apart may be missing. Identical values can stand only once.

How the values were obtained:
[1] = system: CD1 mice; assay: Tail-flick antinociception in CD1 mice; format: in vivo, mouse; conditions: Fig 9b; 7OH 2 mg/kg, sc; individual animals
[2] = target: hKOR (Homo sapiens, UniProt P41145); assay: CAMYEL BRET cAMP agonist assay at hKOR; format: cell-based; conditions: individual replicates, Supplementary Figure 8A source data
Sequence of hKOR (P41145 whole entry): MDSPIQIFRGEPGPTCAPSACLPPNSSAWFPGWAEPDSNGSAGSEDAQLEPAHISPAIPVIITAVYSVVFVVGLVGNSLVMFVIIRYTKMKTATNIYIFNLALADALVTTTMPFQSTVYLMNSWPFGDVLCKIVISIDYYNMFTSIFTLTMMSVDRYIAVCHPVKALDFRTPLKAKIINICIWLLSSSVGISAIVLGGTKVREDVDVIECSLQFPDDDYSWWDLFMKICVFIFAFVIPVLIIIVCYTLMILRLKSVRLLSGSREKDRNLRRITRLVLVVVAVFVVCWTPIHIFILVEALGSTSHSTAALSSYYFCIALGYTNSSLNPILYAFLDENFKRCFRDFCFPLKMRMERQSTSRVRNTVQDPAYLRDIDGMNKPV

[3] = target: T1, mMOR (Mus musculus, UniProt P42866); assay: CAMYEL BRET cAMP agonist assay at mMOR; format: cell-based; conditions: for cAMP %: single replicates, source data Fig 6b
T1 construct: signal peptide (heterologous, not specified) (N); expressed in transfected cells; pcDNA3.1(+) construct made in house
T1 sequence (P42866 whole entry): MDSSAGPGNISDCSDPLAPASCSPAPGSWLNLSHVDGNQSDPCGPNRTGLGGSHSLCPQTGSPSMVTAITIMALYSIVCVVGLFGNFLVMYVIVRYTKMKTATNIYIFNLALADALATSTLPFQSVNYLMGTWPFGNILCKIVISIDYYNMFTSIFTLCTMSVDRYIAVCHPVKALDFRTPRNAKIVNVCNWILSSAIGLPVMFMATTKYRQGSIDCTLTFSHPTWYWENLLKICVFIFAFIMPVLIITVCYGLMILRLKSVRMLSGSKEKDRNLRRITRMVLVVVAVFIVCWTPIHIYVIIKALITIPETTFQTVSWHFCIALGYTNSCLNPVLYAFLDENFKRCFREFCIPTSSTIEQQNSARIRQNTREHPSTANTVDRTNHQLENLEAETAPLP

[4] = target: T2, hMOR (Homo sapiens, UniProt P35372); assay: CAMYEL BRET cAMP agonist assay at hMOR; format: cell-based; conditions: for cAMP %: hMOR, single replicates, source data Fig 6c
T2 construct: expressed in transfected cells; plasmid a gift from Dr. Nevin Lambert
T2 sequence (P35372 whole entry): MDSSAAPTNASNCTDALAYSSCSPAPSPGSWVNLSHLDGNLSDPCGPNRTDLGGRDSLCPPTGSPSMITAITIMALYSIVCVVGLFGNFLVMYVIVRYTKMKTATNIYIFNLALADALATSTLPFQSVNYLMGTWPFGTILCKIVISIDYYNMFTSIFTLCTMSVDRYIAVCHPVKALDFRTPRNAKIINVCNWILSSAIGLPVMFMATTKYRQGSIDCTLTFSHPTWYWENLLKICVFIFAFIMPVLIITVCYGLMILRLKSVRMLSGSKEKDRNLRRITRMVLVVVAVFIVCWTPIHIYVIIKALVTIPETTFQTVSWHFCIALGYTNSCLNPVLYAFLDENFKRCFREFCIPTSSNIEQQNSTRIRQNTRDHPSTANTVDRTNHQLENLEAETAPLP

[5] = target: T3, mDOR (Mus musculus, UniProt P32300); assay: [125I]BNtxA radioligand competition binding, mouse DOR
T3 construct: expressed in transfected cells
T3 sequence (P32300 whole entry): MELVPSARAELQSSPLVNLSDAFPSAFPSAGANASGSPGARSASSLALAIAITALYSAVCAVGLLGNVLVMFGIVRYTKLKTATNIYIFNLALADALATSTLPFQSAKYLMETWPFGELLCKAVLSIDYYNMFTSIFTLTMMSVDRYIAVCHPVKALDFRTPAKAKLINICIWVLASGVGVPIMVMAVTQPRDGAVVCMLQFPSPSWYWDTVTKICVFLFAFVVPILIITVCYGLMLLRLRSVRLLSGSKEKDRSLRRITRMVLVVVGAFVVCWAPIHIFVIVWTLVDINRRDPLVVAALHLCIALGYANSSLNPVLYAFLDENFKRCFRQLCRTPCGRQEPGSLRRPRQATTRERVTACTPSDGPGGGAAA

[6] = target: T1, mMOR; assay: BRET-based Nb33 recruitment assay at mMOR; format: cell-based; conditions: for Nb33 BRET assay at mMOR, response: single replicates, source data Fig 7a, listed as 7-OH Mitragynine

Q: Which results are given for CC[C@@H]1CN2CC[C@@]3(O)C(=Nc4cccc(OC)c43)[C@@H]2C[C@@H]1/C(=C\OC)C(=O)OC [7OH, 7-Hydroxymitragynine, reference compound]?
A: Tail flick (%MPE) [1]: 100.00 %MPE (8×) and 57.97 %MPE and 52.05 %MPE; Tail flick latency [1]: 10 (8×) and 7.1 and 6.5; Agonist activity of 7OH analogs at hKOR ([2]; Log [drug](M) -5): 25.1107 and 37.2516 and 25.09 and 18.6326 and 7.697 and 7.056 and 12.3573 and 15.4119 and 15.9917; Agonist activity of 7OH analogs at hKOR ([2]; Log [drug](M) -6): 26.3842 and 27.9158 and 17.2556 and 19.1124 and 15.0208 and 6.652 and 13.1771 and 3.299 and 8.814; Agonist activity of 7OH analogs at hKOR ([2]; Log [drug](M) -7): 10.6234 and 4.588 and 26.8644 and 8.68 and -0.2355 and 14.6509 and 3.557 and -6.963 and -8.284; Agonist activity of 7OH analogs at hKOR ([2]; Log [drug](M) -8): 5.978 and -10.4494 and 7.122 and 8.973 and 3.679 and 0.5669 and 3.537 and -8.354 and -5.217; Agonist activity of 7OH analogs at hKOR ([2]; Log [drug](M) -9): 4.358 and -4.206 and -18.6896 and -3.311 and 1.614 and -2.537 and 1.131 and 5.305 and 46.2002; Agonist activity of 7OH analogs at hKOR ([2]; Log [drug](M) -10): -9.33 and 0.6018 and -2.152 and 0.113 and -1.397 and 4.8046 and -5.84 and -6.29 and 4.4418; Agonist activity of 7OH analogs at hKOR ([2]; Log [drug](M) -11): 2.533 and -16.0954 and -7.281 and -0.5606 and -1.386 and 5.188 and 3.6558 and -6.195 and -4.675; Agonist activity of 7OH analogs at hKOR ([2]; Log [drug](M) -13): -2.907 and -1.906 and 4.813 and 2.257 and -10 and 7.743 and -0.9804 and -0.456 and 1.436; EC50 [3]: 48 nM; cAMP % ([3]; Log[drug] (M) -5, mMOR): 54.7418% and 39.306% and 62.8715% and 90.7674% and 85.3805% and 81.3701% and 80.1578% and 78.2326% and 79.4832%; cAMP % ([3]; Log[drug] (M) -6, mMOR): 51.4904% and 44.0439% and 41.1377% and 71.7778% and 87.0279% and 84.9352% and 65.6946% and 62.0616% and 68.2077%; cAMP % ([3]; Log[drug] (M) -7, mMOR): 31.3362% and 29.5321% and 20.0587% and 64.2387% and 61.8389% and 74.7851% and 53.7172% and 48.585% and 45.7301%; cAMP % ([3]; Log[drug] (M) -8, mMOR): 9.25% and 16.4555% and 10.0292% and 22.5933% and 31.4368% and 25.3107% and 17.3146% and 8.444% and 13.6716%; cAMP % ([3]; Log[drug] (M) -9, mMOR): 6.25% and 5.067% and 3.569% and -0.5857% and 7.672% and -7.0867% and 8.23% and -1.022% and 10.8029%; cAMP % ([3]; Log[drug] (M) -10, mMOR): 12.6265% and -11.9755% and 9.001% and 8.7384% and -5.2017% and 8.648% and -2.705% and -3.188% and 5.894%; cAMP % ([3]; Log[drug] (M) -11, mMOR): -0.9102% and -0.5945% and 1.505% and 10.3177% and 11.6% and 5.328% and 6.124% and -1.189% and -0.6754%; cAMP % ([3]; Log[drug] (M) -13, mMOR, cAMP inhibition as % of DAMGO): 3.306% and 2.892% and -4.359% and 9.797% and 10.0834% and 11.919% and 5.129% and 4.129% and 1.2769%; Emax ([3]; mMOR, maximal inhibitory effect on cAMP levels relative to DAMGO): 70%; Emax [4]: 96%; cAMP % ([4]; Log[drug] (M) -5): 88.4213% and 90.605% and 95.9962% and 96.6598% and 92.1499% and 89.6322% and 104.97% and 106.65% and 107.127%; cAMP % ([4]; Log[drug] (M) -6): 85.9913% and 88.2699% and 100.077% and 95.6224% and 98.6028% and 95.7246% and 101.519% and 93.2699% and 100.898%; cAMP % ([4]; Log[drug] (M) -7): 74.1823% and 79.6011% and 86.6364% and 71.3053% and 75.9463% and 78.9671% and 86.5888% and 87.8073% and 87.9307%; cAMP % ([4]; Log[drug] (M) -8): 47.9539% and 40.673% and 45.9228% and 28.5173% and 37.309% and 37.8989% and 36.8098% and 40.2437% and 43.4509%; cAMP % ([4]; Log[drug] (M) -9): -5.159% and -0.2818% and 15.9197% and 2.836% and 1.425% and -4.261% and 10.2218% and -0.8382% and 19.3398%; cAMP % ([4]; Log[drug] (M) -10): 2.406% and -6.901% and 4.4945% and -1.371% and 5.724% and -0.06095% and -1.689% and 0.384% and 1.305%; cAMP % ([4]; Log[drug] (M) -11): 10.0741% and 2.867% and -1.276% and 14.2755% and -12.2251% and 5.789% and 12.061% and -4.689% and 0.8824%; cAMP % ([4]; Log[drug] (M) -13, cAMP inhibition as % of DAMGO): 3.998% and -9.01% and 9.508% and 14.9262% and 7.334% and 14.594% and 2.431% and 9.511% and 1.874%; Ki [5]: 88.5 ± 9.9 nM; EC50 [6]: 15 nM; Nb33 BRET assay at mMOR, response ([6]; Log[drug] (M) -5): 31.8558 and 13.6622 and 18.9084 and 19.9525 and 1.3915 and 5.568 and 5.853 and 2.0473 and 9.468; Nb33 BRET assay at mMOR, response ([6]; Log[drug] (M) -6): 11.2448 and 12.7863 and 8.673 and 7.158 and -2.301 and 5.3956 and -5.256 and 15.8192 and 11.2218; Nb33 BRET assay at mMOR, response ([6]; Log[drug] (M) -7): 34.9577 and 9.119 and 11.9292 and 16.603 and 7.256 and -0.02541 and 7.483 and 5.463 and 3.637; Nb33 BRET assay at mMOR, response ([6]; Log[drug] (M) -8): 18.0513 and 18.0293 and 14.3718 and -0.3281 and -6.115 and -12.1072 and 6.0021 and 5.2851 and -7.797
